Values quoted from earlier work as cited in US12648566B2, “Solid bio-pesticidal composition comprising of elemental sulphur and azadirachtin” (SML LIMITED, priority 2021, dated 2026).

Conditions: buffer, pH 4

C/C=C(\C)C(=O)O[C@H]1C[C@@H](OC(C)=O)[C@@]2(C(=O)OC)CO[C@H]3[C@@H](O)[C@@](C)([C@]45O[C@@]4(C)[C@H]4C[C@@H]5O[C@@H]5OC=C[C@@]54O)[C@H]4[C@]1(CO[C@]4(O)C(=O)OC)[C@@H]32 [Azadirachtin]
laboratory half-life: 50 to 100 days
